# Source: ChEMBL document CHEMBL5608208, “Design, synthesis of griseofamine A derivatives and development of potent antibacterial agents against MRSA” (Eur J Med Chem, 2024)
# Active and inactive are the calls of the source. No cut-off for these calls is given here.
# What was measured:
# [1] = tested on: Staphylococcus epidermidis; experiment: Drug resistance development in Staphylococcus epidermidis ATCC 12228 assessed as increase in MIC value measured after 7 passages by broth microdilution method; type: functional, organism-based
# [2] = AUC(0 to infinity) in ICR mouse at 1 mg/kg, iv; type: ADME, organism-based; conditions: in vivo
# [3] = MRT(0 to infinity) in ICR mouse at 1 mg/kg, iv; type: ADME, organism-based; conditions: in vivo
# Staphylococcus aureus [4] = experiment: Potency index, ratio of griseofamine A MIC to test compound MIC for antibacterial activity against methicillin resistant Staphylococcus aureus ATCC 33592; type: functional
# [5] = MRT(0 to infinity) in ICR mouse at 5 mg/kg, po; type: ADME, organism-based; conditions: in vivo
# Staphylococcus aureus [6] = experiment: Drug resistance development in Staphylococcus aureus ATCC 29213 assessed as increase in MIC value measured after 8 passages by broth microdilution method; type: functional
# Bacillus subtilis = experiment: Antibacterial activity against Bacillus subtilis CMCC 63501 incubated for 18 hrs by serial two-fold dilution method; type: functional
# [7] = Clearance in ICR mouse at 5 mg/kg, po; type: ADME, organism-based; conditions: in vivo
# Staphylococcus aureus [8] = experiment: Antibacterial activity against methicillin resistant Staphylococcus aureus ATCC 43300 infected in ICR mouse systemic infection model assessed as reduction in bacterial burden in spleen at 2.5 mg/kg, ip pretreated with bacteria for 30 mins followed by compound addition and measured for 7 days; type: functional, organism-based; conditions: time 7.0 day
# Staphylococcus aureus [9] = experiment: Bactericidal activity against methicillin resistant Staphylococcus aureus ATCC 43300 incubated for 18 to 24 hrs; type: functional; conditions: time 18-24 hrs
# Staphylococcus aureus [10] = experiment: Antibacterial activity against methicillin resistant Staphylococcus aureus ATCC 33592 assessed as surface collapse at MIC incubated for 1 to 6 hrs by SEM analysis; type: functional, organism-based; conditions: time 1-6 hrs
# [11] = Acute toxicity in ICR mouse assessed as change in body weight at 2 g/kg, po measured after 7 days; type: organism-based; conditions: in vivo, 2000 mg/kg, 168 h, time 7 day
# Staphylococcus aureus [12] = experiment: Bactericidal activity against methicillin resistant Staphylococcus aureus ATCC 33592 at 2.5 times MIC measured after 2 to 24 hrs by time-kill kinetics assay; type: functional; conditions: time 2-24 hrs
# [13] = AUC(0 to t) in ICR mouse at 5 mg/kg, po; type: ADME, organism-based; conditions: in vivo
# Staphylococcus aureus [14] = experiment: Drug resistance development in methicillin resistant Staphylococcus aureus […] assessed as increase in MIC value measured after 8 passages by broth microdilution method; type: functional
# Staphylococcus aureus [15] = experiment: Bactericidal activity against methicillin resistant Staphylococcus aureus ATCC 33592 incubated for 18 to 24 hrs; type: functional; conditions: time 18-24 hrs
# [16] = Volume of distribution in ICR mouse at 5 mg/kg, po; type: ADME, organism-based; conditions: in vivo
# [17] = tested on: Staphylococcus epidermidis; experiment: Antibacterial activity against Staphylococcus epidermidis ATCC 12228 incubated for 18 hrs by serial two-fold dilution method; type: functional
# Staphylococcus aureus [18] = experiment: Antibacterial activity against methicillin resistant Staphylococcus aureus ATCC 33592 assessed as leakage of cellular components at MIC incubated for 1 to 6 hrs by SEM analysis; type: functional, organism-based; conditions: time 1-6 hrs
# Staphylococcus aureus [19] = experiment: Antibacterial activity against methicillin resistant Staphylococcus aureus ATCC 43300 infected in ICR mouse systemic infection model assessed as reduction in bacterial burden in heart at 2.5 mg/kg, ip pretreated with bacteria for 30 mins followed by compound addition and measured for 7 days; type: functional, organism-based; conditions: time 7.0 day
# Staphylococcus aureus [20] = experiment: Drug resistance development in methicillin resistant Staphylococcus aureus ATCC 43300 assessed as increase in MIC value measured after 7 passages by broth microdilution method; type: functional, organism-based
# Staphylococcus aureus [21] = experiment: Inhibition of biofilm formation in methicillin resistant Staphylococcus aureus ATCC 33592 assessed as decrease in biofilm survival rate incubated for 48 hrs by crystal violet staining based optical microscopic analysis; type: functional, organism-based
# [22] = AUC(0 to t) in ICR mouse at 1 mg/kg, iv; type: ADME, organism-based; conditions: in vivo
# [23] = Cmax in ICR mouse at 1 mg/kg, iv; type: ADME, organism-based; conditions: in vivo
# [24] = Half-life in ICR mouse at 5 mg/kg, po; type: ADME, organism-based; conditions: in vivo
# [25] = Hemolytic activity in rabbit RBC assessed as hemolysis rate at 23.5 ug/ml incubated for 1 hr by microplate reader assay; type: toxicity, cell-based, Oryctolagus cuniculus, Erythrocyte; conditions: rabbit red blood cells (erythrocytes), at 23.5 µg/mL, read-out: Activity
# Staphylococcus aureus [26] = experiment: Antibacterial activity against methicillin resistant Staphylococcus aureus ATCC 43300 infected in ICR mouse systemic infection model at 5 mg/kg, ip pretreated with bacteria for 30 mins followed by compound addition and measured for 7 days; type: functional; conditions: time 7 day
# Staphylococcus aureus [27] = experiment: Antibacterial activity against methicillin resistant Staphylococcus aureus ATCC 43300 incubated for 18 hrs by serial two-fold dilution method; type: functional
# [28] = MRT(0 to t) in ICR mouse at 5 mg/kg, po; type: ADME, organism-based; conditions: in vivo
# Staphylococcus aureus [29] = experiment: Antibacterial activity against methicillin resistant Staphylococcus aureus ATCC 33592 assessed as increase in cell aggregation at MIC incubated for 1 to 6 hrs by SEM analysis; type: functional, organism-based; conditions: time 1-6 hrs
# Staphylococcus aureus [30] = experiment: Potency index, ratio of vancomycin MIC to test compound MIC for antibacterial activity against methicillin resistant Staphylococcus aureus ATCC 33592; type: functional
# [31] = Half-life in ICR mouse at 1 mg/kg, iv; type: ADME, organism-based; conditions: in vivo
# [32] = Tmax in ICR mouse at 1 mg/kg, iv; type: ADME, organism-based; conditions: in vivo
# Staphylococcus aureus [33] = experiment: Drug resistance development in Staphylococcus aureus ATCC 29213 assessed as increase in MIC value measured after 7 passages by broth microdilution method; type: functional, organism-based
# Staphylococcus aureus [34] = experiment: Antibacterial activity against methicillin resistant Staphylococcus aureus ATCC 43300 infected in ICR mouse systemic infection model at 2.5 mg/kg, ip pretreated with bacteria for 30 mins followed by compound addition and measured for 7 days; type: functional; conditions: time 7 day
# Cell membrane = experiment: Induction of bacterial cell membrane damage in methicillin resistant Staphylococcus aureus ATCC 33592 assessed as increase in fluorescence intensity at MIC incubated for 2 hrs by PI staining based microplate reader assay; type: cell membranes
# [35] = Acute toxicity in ICR mouse assessed as aberrant behavior at 2 g/kg, po measured after 7 days; type: organism-based; conditions: in vivo, 2000 mg/kg, 168 h, time 7 day
# [36] = tested on: Staphylococcus epidermidis; experiment: Drug resistance development in Staphylococcus epidermidis ATCC 12228 assessed as increase in MIC value measured after 8 passages by broth microdilution method; type: functional
# Enterococcus faecium = experiment: Antibacterial activity against Enterococcus faecium ATCC 700221 incubated for 18 hrs by serial two-fold dilution method; type: functional
# [37] = Cytotoxicity against mouse MLg cells assessed as survival rate at 23.5 ug/ml incubated for 24 hrs by MTS method; type: toxicity, cell-based; conditions: at 23.5 µg/mL, read-out: Survival
# [38] = Acute toxicity in ICR mouse assessed as change in food intake at 2 g/kg, po measured after 7 days; type: organism-based; conditions: in vivo, 2000 mg/kg, 168 h, time 7 day
# Staphylococcus aureus [39] = experiment: Antibacterial activity against methicillin resistant Staphylococcus aureus ATCC 43300 infected in ICR mouse systemic infection model at 1.25 to 5 mg/kg, ip pretreated with bacteria for 30 mins followed by compound addition and measured for 7 days; type: functional; conditions: dose 1.25-5 mg/kg, time 7 day
# [40] = AUC(0 to infinity) in ICR mouse at 5 mg/kg, po; type: ADME, organism-based; conditions: in vivo
# [41] = Cmax in ICR mouse at 5 mg/kg, po; type: ADME, organism-based; conditions: in vivo
smiles,measurement,setting,value
C/C(O)=C1\C(=O)[C@@H]2Cc3c([nH]c4ccccc34)[C@@H](c3ccc(-c4cc(F)cc(F)c4)cc3)N2C1=O,Activity,[1],inactive
same,AUC(0-inf),[2],4290 ng·h/mL
same,MRT inf,[3],11.1 h
same,Ratio,Staphylococcus aureus [4],128
same,MRT inf,[5],12.7 h
same,MIC,Staphylococcus aureus [6],2 µg/mL
same,MIC,Bacillus subtilis,0.14 µg/mL
same,CL/F,[7],32.5 mL/min/kg
same,Activity,Staphylococcus aureus [8],Active
same,MBC,Staphylococcus aureus [9],1 µg/mL
same,Activity,Staphylococcus aureus [10],Active
same,Activity,[11],Non-Toxic
same,Activity,Staphylococcus aureus [12],100%
same,AUC(0-t),[13],2450 ng·h/mL
same,MIC,Staphylococcus aureus [14],2 µg/mL
same,MBC,Staphylococcus aureus [15],0.5 µg/mL
same,Vd,[16],21.714 L/kg
same,MIC,[17],0.125 µg/mL
same,Activity,Staphylococcus aureus [18],Active
same,Activity,Staphylococcus aureus [19],Active
same,Activity,Staphylococcus aureus [20],inactive
same,inhibition,Staphylococcus aureus [21],Dose-Dependent Effect
same,AUC(0-t),[22],4240 ng·h/mL
same,Cmax,[23],748 ng/mL
same,half-life,[24],7.91 h
same,"hemolysis at 1 h, 23.5 ug/ml",[25],< 5%
same,Activity,Staphylococcus aureus [26],87.5%
same,MIC,Staphylococcus aureus [27],0.063 µg/mL
same,MRT last,[28],10.6 h
same,Activity,Staphylococcus aureus [29],Active
same,Ratio,Staphylococcus aureus [30],8
same,half-life,[31],7.59 h
same,Tmax,[32],1.8 min
same,Activity,Staphylococcus aureus [33],inactive
same,Activity,Staphylococcus aureus [34],75%
same,Activity,Cell membrane,Active
same,Activity,[35],Non-Toxic
same,MIC,[36],2 µg/mL
same,MIC,Enterococcus faecium,0.45 µg/mL
same,"viability at 24 h, 23.5 ug/ml",[37],> 80%
same,Activity,[38],Non-Toxic
same,Activity,Staphylococcus aureus [39],>50%
same,AUC(0-inf),[40],2570 ng·h/mL
same,Cmax,[41],233 ng/mL
